Experimental findings from EP0450097B1, “BENZOHETEROCYCLIC COMPOUNDS” (OTSUKA PHARMACEUTICAL CO., LTD., priority 1989, dated 1991) are described below.

The structures appear in SMILES notation.

One assay has as its target T1, V₂ receptor (Rattus norvegicus, UniProt Q00788).
T1 construct: Using rat kidney plasma membrane preparations; from tissue; host or cells: rat kidney plasma membranes
Briefly: V₂ receptor binding assay ([³H]-Arg-vasopressin, rat kidney plasma membrane preparations). Particulars: 4°C for 3 hours. The essentials: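 IC₅₀ reflects displacement of [³H]-vasopressin bound to rat kidney plasma membrane preparations, with excess vasopressin (10⁻⁶ M) defining nonspecific binding. Membrane-bound label separated by glass-filter (GF/F) filtration and measured by scintillation counting.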

A further assay concerns SD rats. Briefly: Anti-antidiuretic activity (effect on endogenous ADH), amount of urine. Particulars: for ED (3-fold urine volume): Rattus norvegicus, iv, read-out: ED₃. The assay is classed as in vivo. The source says: […] During this measurement, the rats are allowed to take water and feed freely.
The amount of urine of control rats (solvent-treated group) is regarded as 100 %, and the results are expressed as ED₃ value, which is the dose of the test compound to be required to excrete the urine by three times than that of the control rats.

The target of another assay is T2, V₁ receptor (Rattus norvegicus, UniProt P30560).
T2 construct: Using rat liver plasma membrane preparations; from tissue; host or cells: rat liver plasma membranes
Briefly: V₁ receptor binding assay ([³H]-Arg-vasopressin, rat liver plasma membrane preparations). Particulars: 37°C for 10 minutes. On the procedure: Using rat liver plasma membrane preparations prepared according to Ichihara's method [cf: Akira Ichihara, J. Bio. Chem., 258, 9283 (1983)], the plasma membrane (50000dpm, 2x10⁻¹⁰ M) of [³H]-Arg-vasopressin and a test compound (60 µg, 10⁻⁸-10⁻⁴ M) are incubated at 37°C for 10 minutes in 100 mM Tris-HCl buffer (pH: 8.0, 250 µl) containing 5 mM MgCl₂, 1 mM EDTA and 0.1 % BSA. After incubation, the mixture is filtered three times using the glass filter (GF/F) so as to separate the membrane preparation combined with vasopressin and then washed with the buffer (5 ml). This glass filter is taken out and mixed with liquid scintillation cocktail. The amount of [³H]-vasopressin combined with the membrane is measured by liquid scintillation counter and the rate of the inhibitory effect of the test compound is estimated according to the following equation. Rate of the inhibitory effect (%) = 100 -(C1 - B1)/(C0 - B1)X 100 [formula] C¹: The amount of [³H]-vasopressin combined with the membrane in the presence of the test compound (in prescribed amount). C⁰: The amount of [³H]-vasopressin combined with the membrane in the absence of the test compound. B¹: The amount of [³H]-vasopressin combined with the membrane in the presence of the excess amount of vasopressin (10⁻⁶ M).
The results are expressed as IC₅₀ values, which is the concentration of the test compound required to achieve the inhibitory effect in the rate of 50 %.

Where [1] appears, read: administered into a caudal vein, urine collected for 2 hours, dose to excrete the urine by three times that of control rats, solvent dimethylformamide.

T1 sequence (Q00788 whole entry): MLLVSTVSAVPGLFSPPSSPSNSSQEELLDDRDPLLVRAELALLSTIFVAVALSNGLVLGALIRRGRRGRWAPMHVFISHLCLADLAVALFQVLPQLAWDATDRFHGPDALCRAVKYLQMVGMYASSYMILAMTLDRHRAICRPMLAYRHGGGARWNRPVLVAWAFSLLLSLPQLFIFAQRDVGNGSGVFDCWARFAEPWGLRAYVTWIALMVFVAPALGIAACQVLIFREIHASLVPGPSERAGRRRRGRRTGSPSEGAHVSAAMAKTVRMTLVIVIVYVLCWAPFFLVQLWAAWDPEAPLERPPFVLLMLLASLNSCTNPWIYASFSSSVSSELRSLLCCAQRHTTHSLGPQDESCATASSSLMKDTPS
T2 sequence (P30560 whole entry): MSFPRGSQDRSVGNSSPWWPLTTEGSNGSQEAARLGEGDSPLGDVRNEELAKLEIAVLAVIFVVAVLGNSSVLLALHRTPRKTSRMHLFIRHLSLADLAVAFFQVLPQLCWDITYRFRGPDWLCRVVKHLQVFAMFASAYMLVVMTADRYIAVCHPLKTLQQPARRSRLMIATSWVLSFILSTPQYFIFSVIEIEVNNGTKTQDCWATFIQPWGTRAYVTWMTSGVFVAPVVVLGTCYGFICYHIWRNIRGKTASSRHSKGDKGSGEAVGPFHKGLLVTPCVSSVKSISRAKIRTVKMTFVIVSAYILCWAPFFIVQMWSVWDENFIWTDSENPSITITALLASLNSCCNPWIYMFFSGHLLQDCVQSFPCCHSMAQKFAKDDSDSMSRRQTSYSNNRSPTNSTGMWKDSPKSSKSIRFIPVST

For the molecule `O=C(Nc1ccc(C(=O)N2CCCC(O)c3ccccc32)cc1)c1cc(Cl)cc(Cl)c1` (stereo not drawn) [compound 178], at V₂ receptor, the half-inhibitory concentration (IC50) (usually the concentration needed to halve the response being measured) was found to be 12 nM. The molecule also showed an ED₃ in the assay with SD rats (setting [1]) of 4.2 mg/kg.

With `Cc1cccc(C(=O)Nc2ccc(C(=O)N3CCCCc4ccccc43)cc2)c1C` [compound 33], the IC50 turned out to be 7 nM on V₂ receptor and 92 nM at V₁ receptor. Besides, in the assay with SD rats (setting [1]), the ED (3-fold urine volume) worked out at 1.9 mg/kg.

For `Cc1ccccc1C(=O)Nc1ccc(C(=O)N2CCCC(N(C)C)c3ccccc32)cc1` (stereo not drawn) [compound 249], the ED₃ in the assay on SD rats (as E3, but physiological saline solution used as solvent instead of dimethylformamide) was 0.4 ^*) mg/kg.

Consider `Cc1ccccc1C(=O)Nc1ccc(C(=O)N2CCC(C)C(O)c3ccccc32)cc1` (stereo not drawn) [compound 256], for which the IC50 came to 4 nM at V₂ receptor and 49 nM on V₁ receptor.

On to `CCN(CC(=O)Nc1ccc(C(=O)N2CCCCc3ccccc32)cc1)c1ccccc1` [compound 114], for which the IC50 turned out to be 6 nM at V₂ receptor and 11 nM on V₁ receptor.

Consider `COc1cc(C(=O)N2CCCC(NC3CC3)c3cc(Cl)ccc32)ccc1NC(=O)c1ccccc1Cl` (stereo not drawn) [compound 322], for which the half-maximal inhibitory concentration (IC50) at V₂ receptor amounted to 25 nM; at V₁ receptor it was 44 nM.

On to `Cc1ccccc1C(=O)Nc1ccc(C(=O)N2CCCN(C)c3ccccc32)cc1` [compound 90], for which the IC50 was 14 nM on V₂ receptor and 380 nM at V₁ receptor.

`CN(C)c1ccccc1C(=O)Nc1ccc(C(=O)N2CCCC(N(C)C)c3ccccc32)cc1` (stereo not drawn) [compound 298]: the IC50 is 100 nM on V₂ receptor and 290 nM at V₁ receptor.

Turning to `CNC1CCCN(C(=O)c2ccc(NC(=O)c3ccccc3Cl)cc2)c2ccc(Cl)cc21` (stereo not drawn) [compound 302], the half-inhibitory concentration (IC50) on V₂ receptor worked out at 11 nM; at V₁ receptor, 71 nM.

Regarding `CN1CCCN(C(=O)c2ccc(NC(=O)C3CCCCC3)cc2)c2ccccc21` [compound 88], the results for the IC50 at V₂ receptor and on V₁ receptor were 21 nM and 340 nM, respectively.

Take `COc1cc(NC(=O)c2ccccc2C)ccc1C(=O)N1CCCC(O)c2ccccc21` (stereo not drawn) [compound 238]: the half-inhibitory concentration (IC50) on V₂ receptor was 20 nM; on V₁ receptor it was 390 nM.

For the molecule `O=C(Nc1ccc(C(=O)N2CCCCc3ccccc32)cc1)c1cc(Cl)cc(Cl)c1` [compound 32], the results for the IC50 on V₂ receptor and on V₁ receptor were 16 nM and 300 nM, respectively.

Take `Cc1ccccc1NCC(=O)Nc1ccc(C(=O)N2CCCC(N(C)C)c3ccccc32)cc1` (stereo not drawn) [compound 316]: the 50% inhibitory concentration (IC50) on V₂ receptor worked out at 60 nM; at V₁ receptor it was 470 nM.

With `CN(C)C1CCCN(C(=O)c2ccc(NC(=O)c3ccccc3C(F)(F)F)cc2)c2ccccc21` (stereo not drawn) [compound 188], the values for the 50% inhibitory concentration (IC50) on V₂ receptor and at V₁ receptor were 39 nM and 470 nM, respectively.

For the molecule `COc1cc(C(=O)N2CCCCc3ccccc32)ccc1NC(=O)C1CCCCC1` [compound 76], the figures for the IC50 at V₂ receptor and on V₁ receptor were 17 nM and 42 nM, respectively.

Take `O=C(CNc1ccccc1Cl)Nc1ccc(C(=O)N2CCCCc3ccccc32)cc1` [compound 116]: the IC50 at V₂ receptor is 39 nM; on V₁ receptor, 40 nM.

Turning to `Cc1ccccc1C(=O)Nc1ccc(C(=O)N2CCCC(OCC(=O)N3CCOCC3)c3ccccc32)cc1` (stereo not drawn) [compound 278], the IC50 is 13 nM on V₂ receptor and 300 nM on V₁ receptor.

Consider `CCN(CC(=O)Nc1ccc(C(=O)N2CCCC(NC)c3cc(Cl)ccc32)cc1)c1ccccc1` (stereo not drawn) [compound 307], for which the half-maximal inhibitory concentration (IC50) amounted to 10 nM at V₂ receptor and 24 nM at V₁ receptor.

As for `Cc1cccc(C(=O)Nc2ccc(C(=O)N3CCCc4ccccc43)cc2)c1C` [compound 6], on V₂ receptor, the half-maximal inhibitory concentration (IC50) is 76 nM. Besides, in the assay on SD rats (setting [1]), the ED (3-fold urine volume) amounted to 10 mg/kg.

With `O=C(Nc1ccc(C(=O)N2CCCCc3ccccc32)cc1)c1ccc(Cl)cc1Cl` [compound 62], the concentration for half-maximal inhibition (IC50) at V₂ receptor was 23 nM; at V₁ receptor, 98 nM.

For the molecule `Cc1ccccc1C(=O)Nc1ccc(C(=O)N2CCCC(OCC(=O)N(C)C)c3ccccc32)cc1` (stereo not drawn) [compound 163], the results for the concentration for half-maximal inhibition (IC50) at V₂ receptor and at V₁ receptor were 9 nM and 220 nM, respectively.

As for `CNC1CCCN(C(=O)c2ccc(NC(=O)c3ccccc3Cl)c(OC)c2)c2ccc(Cl)cc21` (stereo not drawn) [compound 321], the half-inhibitory concentration (IC50) at V₂ receptor was found to be 12 nM; at V₁ receptor, 59 nM.

For the molecule `O=C(Nc1ccc(C(=O)N2CCCCc3ccccc32)cc1)c1c(F)cccc1Cl` [compound 63], the IC50 is 46 nM at V₂ receptor and 140 nM at V₁ receptor.

For `Cc1ccccc1C(=O)Nc1ccc(C(=O)N2CCCC(OC(=O)N(C)C)c3ccccc32)cc1` (stereo not drawn) [compound 187], the IC50 at V₂ receptor came to 29 nM; on V₁ receptor, 450 nM.

As for `Cc1ccccc1C(=O)Nc1ccc(C(=O)N2CCCCCc3ccccc32)cc1` [compound 36], the figures for the IC50 on V₂ receptor and at V₁ receptor were 28 nM and 410 nM, respectively.

As for `O=C(Nc1ccc(C(=O)N2CCCCc3ccccc32)cc1)c1cccc(C(F)(F)F)c1` [compound 58], the 50% inhibitory concentration (IC50) on V₂ receptor came out at 140 nM; on V₁ receptor it was 400 nM.

With `Cc1ccccc1C(=O)Nc1ccc(C(=O)N2CCCC(COS(C)(=O)=O)c3ccccc32)cc1` (stereo not drawn) [compound 235], the IC50 came out at 6 nM on V₂ receptor and 88 nM at V₁ receptor.
